Data on 13 compounds can be found in US20250296940A1, “ANNULATED 2-AMINO-3-CYANO THIOPHENES AND DERIVATIVES FOR THE TREATMENT OF CANCER” (Boehringer Ingelheim Int'l GmbH Corp., priority 2021, published 2025).

Each structure is given as a SMILES string. pIC50: −log10 of the molar value. In brackets after ≈: the same amount, converted by molar mass. Read-outs that look alike come from different tables or passages of the source.

Data set [1] concerns NCI-H358 cells (NSCLC, G12C). As to the kind of experiment: NCI-H358 CTG proliferation assay (120 h). Type of data set: cell-based. As to conditions: Homo sapiens, NCI-H358, CellTiter-Glo. As to the method:
NCI-H358 cells (ATCC No. CRL-5807) are dispensed into white bottom opaque 96 well plates (Perkin Elmer cat no. 5680) at a density of 2000 cells per well in 100 μL RPMI-1640 ATCC-Formulation (Gibco #A10491)+10% FCS (fetal calf serum). […] Compounds (10 mM stock in DMSO) are added at logarithmic dose series using the HP Digital Dispenser D300 (Tecan), normalizing for added DMSO and including DMSO controls. For the TO time point measurement, untreated cells are analyzed at the time of compound addition. Plates are incubated for 120 h, and cell viability is measured using CellTiter-Glo luminescent cell viability reagent (Promega product code G7570). Viability (stated as percent of control) is defined as relative luminescence units RLU of each well divided by the RLU of cells in DMSO controls. IC50 values are determined from viability measurements by non-linear regression using a four parameter model.
IC50 values of representative compounds according to the invention measured with these assays in the indicated cell lines: […]
A general note: ATP-based viability assays read luminescence as a measure of living cells.

A further data set concerns the target Ba/F3 KRASG12C cells (Homo sapiens, UniProt P01116, G12C, cells depend on it). Description: Ba/F3 cell model proliferation assay (AlamarBlue, 72 h). As to conditions: without IL-3, read-out: IC50 Ba/F3 KRASG12C. Type of data set: cell-based. As to the method:
Plasmids containing KRASG12 mutants were obtained from GeneScript. […] Retrovirus was added to Ba/F3 cells. To ensure infection, 4 μg/mL polybrene was added and cells were spinfected. […] As a control, parental Ba/F3 cells were used to show selection status. Selection was considered successful when parental Ba/F3 cells cultures died. […] Ba/F3 cells harboring the empty vector were used as a control. Approximately ten days before conducting the experiments, puromycin was left out.
Compounds were added using an Access Labcyte Workstation with a Labcyte Echo 550 or 555 acoustic dispenser. All treatments were performed in technical duplicates. The assay is run using a fully automated robotic system. […] AlamarBlue™ (ThermoFisher), a viability stain, was added and fluorescence measured in the PerkinElmer Envision HTS Multilabel Reader. The raw data were imported into and analyzed with the Boehringer Ingelheim proprietary software MegaLab (curve fitting based on the program PRISM, GraphPad Inc.).
On the technique in general: Alamar Blue is a resazurin reagent that responds to reducing activity.

Data set [2] in a line: Solubility measurement (DMSO solution precipitation method). Type of data set: physicochemical. As to conditions: aqueous buffer, kinetic from dmso stock, ambient temperature. As to the method: The DMSO solution is diluted with an aqueous medium (McIlvaine buffer with pH=4.5 or 6.8) to a final concentration of 250 μM. After 24 h of shaking at ambient temperature a potentially formed precipitate is removed by filtration. The concentration of the test compound in the filtrate is determined by LC-UV methods by calibrating the signal to the signal of a reference solution with complete dissolution of the test compound in acetonitrile/water (1:1) with known concentration.
Data obtained with the disclosed assay for a selection of compounds (I) according to the invention: […]

The subject of data set [3] is pERK (Thr202/Tyr204) in NCI-H358 cells (KRAS G12C mutation). Description: ERK phosphorylation assay (assay 1, NCI-H358). It counts as cell-based. As to conditions: Homo sapiens; NCI-H358 (assay 1), 1 h compound incubation. The text has this:
Low IC50 values in this assay setting are indicative of high potency of the compounds according to the invention. […]
• RPMI-1640 Medium (ATCC® 30-2001™) • Fetal Bovine Serum (FBS) from HyClone (SH30071.03) • Non-essential amino acids from Thermo Fischer Scientific (11140035) • Pyruvate from Thermo Fischer Scientific (11360039) • Glutamax from Thermo Fischer Scientific (35050061) • 384 plates from Greiner Bio-One (781182) • Proxiplate™ 384 from PerkinElmer Inc. (6008280) • AlphaLISA SureFire Ultra p-ERK1/2 (Thr202/Tyr204) Assay Kit (ALSU-PERK-A500) EGF from Sigma (E4127) • Acceptor Mix: Protein A Acceptor Beads from PerkinElmer (6760137M) • Donor Mix: AlphaScreen Streptavidin-coated Donor Beads from PerkinElmer (6760002) • Trametinib • Staurosporine from Sigma Aldrich (S6942)
Cells are seeded at 40,000 cells per well in/60 μL of RPMI with 10% FBS, non-essential amino acids, pyruvate and glutamax in Greiner TC 384 plates. The cells are incubated for 1 h at room temperature and then incubated overnight in an incubator at 37° C. and 5% CO2 in a humidified atmosphere. 60 nL compound solution (10 mM DMSO stock solution) is then added using a Labcyte Echo 550 device. After a 1 h incubation in the aforementioned incubator the medium is removed after centrifugation and the cells lysed by addition of 20 μL of 1.6-fold lysis buffer from the AlphaLISA SureFire Ultra pERK1/2 (Thr202/Tyr204) Assay Kit with added protease inhibitors, 100 nM trametinib+100 nM staurosporine. After 20 minutes of incubation at room temperature with shaking, 6 μL of each lysate sample is transferred to a 384-well Proxiplate and analyzed for pERK (Thr202/Tyr204) with the AlphaLISA SureFire Ultra pERK1/2 (Thr202/Tyr204) Assay Kit. 3 μL Acceptor Mix and 3 μL Donor Mix are added under subdued light and incubated for 2 h at room temperature in the dark, before the signal is measured on a PerkinElmer Envision HTS Multilabel Reader. The raw data were imported into and analyzed with the Boehringer Ingelheim proprietary software MegaLab (curve fitting based on the program PRISM, GraphPad Inc.).
IC50 values of representative compounds (I) according to the invention measured with this assay are presented in table 22 (IC50s from assay 2 are marked with *, all others are from assay 1).

[4] abbreviates: McIlvaine buffer pH 4.5, 24 h, read-out: Solubility pH 4.5.
[5] abbreviates: McIlvaine buffer pH 6.8, 24 h, read-out: Solubility pH 6.8.

Chain of Ba/F3 KRASG12C cells (P01116 whole entry G12C): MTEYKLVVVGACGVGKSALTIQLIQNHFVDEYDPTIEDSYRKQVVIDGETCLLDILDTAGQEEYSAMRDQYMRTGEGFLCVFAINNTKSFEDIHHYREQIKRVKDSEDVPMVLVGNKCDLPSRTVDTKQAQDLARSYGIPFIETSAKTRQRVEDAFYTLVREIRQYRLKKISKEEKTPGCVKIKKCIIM

In general, pIC50 refers to the IC50 on a negative log10 scale, so that one unit is a factor of ten. Low values mean a high IC50, high ones a low IC50. By solubility is commonly meant the concentration that dissolves in the medium under given conditions. On to `C=C(F)C(=O)N1[C@@H](C)CN(c2cc(O[C@@H](C)[C@@H]3CCCN3C)nc(-c3onc4c3CCC[C@@]43CCCc4sc(N)c(C#N)c43)n2)C[C@@H]1C` [Ia-1], for which the pIC50 is 9.00 in data set [1] and 8.08 in data set [3]. Besides, the GI50 on Ba/F3 KRASG12C cells stood at 0.8 nM. For the same compound, the figures for the solubility at 24 h in data set [2] (setting [4]) and in data set [2] (setting [5]) were 125 µg/mL (≈ 185 µM) and 57 µg/mL (≈ 84.5 µM), respectively.

For `C=CC(=O)N1[C@@H](C)CN(c2cc(O[C@@H](C)[C@@H]3CCCN3C)nc(-c3onc4c3CCC[C@@]43CCCc4sc(N)c(C#N)c43)n2)C[C@@H]1C` [Ia-2], the pIC50 is over 9.00 in data set [1] and 8.96 in data set [3]. The GI50 on Ba/F3 KRASG12C cells was determined as 0.1 nM. For the same compound, the solubility at 24 h in data set [2] (setting [4]) is over 156 µg/mL; in data set [2] (setting [5]), 126 µg/mL (≈ 192 µM).

On to `C=C(F)C(=O)N1[C@@H](C)CN(c2cc(-c3onc4c3CCC[C@@]43CCCc4sc(N)c(C#N)c43)nc(O[C@@H](C)[C@@H]3CCCN3C)n2)C[C@@H]1C` [Ia-3], for which the pIC50 in data set [1] was 8.15; in data set [3], 7.79. Moreover, the GI50 on Ba/F3 KRASG12C cells turned out to be 3.7 nM. Moreover, the values for the solubility at 24 h in data set [2] (setting [4]) and in data set [2] (setting [5]) were 116 µg/mL (≈ 172 µM) and under 1 µg/mL, respectively.

Take `C=CC(=O)N1[C@@H](C)CN(c2cc(-c3onc4c3CCC[C@@]43CCCc4sc(N)c(C#N)c43)nc(O[C@@H](C)[C@@H]3CCCN3C)n2)C[C@@H]1C` [Ia-4]: in data set [1], the pIC50 is over 9.00. Also, at Ba/F3 KRASG12C cells, the GI50 turned out to be 0.1 nM. The values for the solubility at 24 h in data set [2] (setting [4]) and in data set [2] (setting [5]) were over 163 µg/mL and over 160 µg/mL, respectively.

Turning to `C[C@H](Oc1cc(N2C[C@H](C)N(C(=O)/C=C/CF)[C@@H](C)C2)nc(-c2noc3c2CCC[C@@]32CCCc3sc(N)c(C#N)c32)n1)[C@@H]1CCCN1C` [Ib-1], the pIC50 in data set [1] is 9.00; in data set [3], 8.38. Further, the GI50 at Ba/F3 KRASG12C cells worked out at 0.5 nM.

Turning to `C=CC(=O)N1CCN(c2cc(O[C@@H](C)[C@@H]3CCCN3C)nc(-c3noc4c3CCC[C@@]43CCCc4sc(N)c(C#N)c43)n2)CC12CC2` [Ib-2], the pIC50 in data set [1] and in data set [3] was 9.00 throughout. Further, the GI50 at Ba/F3 KRASG12C cells turned out to be 0.3 nM. Moreover, the solubility at 24 h in data set [2] (setting [4]) stood at 111 µg/mL (≈ 170 µM); in data set [2] (setting [5]), 77 µg/mL (≈ 118 µM).

Regarding `C=CC(=O)N1[C@@H](C)CN(c2cc(O[C@@H](C)[C@@H]3CCCN3C)nc(-c3noc4c3CCC[C@@]43CCCc4sc(N)c(C#N)c43)n2)C[C@@H]1C` [Ib-3], the values for the pIC50 in data set [1] and in data set [3] were over 9.00 and 8.89, respectively. For the same compound, on Ba/F3 KRASG12C cells, the GI50 turned out to be 0.2 nM. Moreover, the solubility at 24 h in data set [2] (setting [4]) was 130 µg/mL (≈ 198 µM); in data set [2] (setting [5]) it was 121 µg/mL (≈ 184 µM).

On to `C=CC(=O)N1[C@@H](C)CN(c2cc(-c3noc4c3CCC[C@@]43CCCc4sc(N)c(C#N)c43)nc(O[C@@H](C)[C@@H]3CCCN3C)n2)C[C@@H]1C` [Ib-4], for which the pIC50 in data set [1] was over 9.00; in data set [3] it was 9.40. Besides, the GI50 at Ba/F3 KRASG12C cells worked out at 0.1 nM. The solubility at 24 h in data set [2] (setting [4]) was over 140 µg/mL; in data set [2] (setting [5]), 129 µg/mL (≈ 196 µM).

Turning to `C=C(F)C(=O)N1[C@@H](C)CN(c2cc(O[C@@H](C)[C@@H]3CCCN3C)nc(-c3noc4c3CCC[C@@]43CCCc4sc(N)c(C#N)c43)n2)C[C@@H]1C` [Ib-5], the pIC50 in data set [1] is 9.00; in data set [3] it was 8.11. Besides, the GI50 on Ba/F3 KRASG12C cells came to 0.5 nM. In addition, the values for the solubility at 24 h in data set [2] (setting [4]) and in data set [2] (setting [5]) were 116 µg/mL (≈ 172 µM) and 40 µg/mL (≈ 59.3 µM), respectively.

Consider `C=C(F)C(=O)N1[C@@H](C)CN(c2cc(-c3noc4c3CCC[C@@]43CCCc4sc(N)c(C#N)c43)nc(O[C@@H](C)[C@@H]3CCCN3C)n2)C[C@@H]1C` [Ib-6], for which the negative-log IC50 (pIC50) in data set [1] is 8.70; in data set [3] it was 8.28. For the same compound, the GI50 at Ba/F3 KRASG12C cells was found to be 1.6 nM. Moreover, the solubility at 24 h was found to be 113 µg/mL (≈ 167 µM) in data set [2] (setting [4]) and 50 µg/mL (≈ 74.1 µM) in data set [2] (setting [5]).

Take `C[C@H](Oc1nc(-c2noc3c2CCC[C@@]32CCCc3sc(N)c(C#N)c32)cc(N2C[C@H](C)N(C(=O)/C=C/CF)[C@@H](C)C2)n1)[C@@H]1CCCN1C` [Ib-7]: the pIC50 in data set [1] is 8.40; in data set [3], 8.33. Further, at Ba/F3 KRASG12C cells, the GI50 worked out at 1.6 nM. In addition, the figures for the solubility at 24 h in data set [2] (setting [4]) and in data set [2] (setting [5]) were over 139 µg/mL and 108 µg/mL (≈ 157 µM), respectively.

With `C[C@H](Oc1nc(-c2noc3c2CCC[C@@]32CCCc3sc(N)c(C#N)c32)cc(N2C[C@H](C)N(C(=O)/C=C/c3cccnc3)[C@@H](C)C2)n1)[C@@H]1CCCN1C` [Ib-8], the pIC50 is 7.07 in data set [1] and 7.57 in data set [3]. Also, the GI50 on Ba/F3 KRASG12C cells worked out at 25.1 nM. Further, the solubility at 24 h is 102 µg/mL (≈ 139 µM) in data set [2] (setting [4]) and 13 µg/mL (≈ 17.7 µM) in data set [2] (setting [5]).

With `COC/C=C/C(=O)N1[C@@H](C)CN(c2cc(-c3noc4c3CCC[C@@]43CCCc4sc(N)c(C#N)c43)nc(O[C@@H](C)[C@@H]3CCCN3C)n2)C[C@@H]1C` [Ib-9], the pIC50 in data set [1] was 7.05; in data set [3] it was 6.43. The GI50 on Ba/F3 KRASG12C cells stood at 15.1 nM. Moreover, the solubility at 24 h in data set [2] (setting [4]) came out at 83 µg/mL (≈ 118 µM); in data set [2] (setting [5]), 114 µg/mL (≈ 163 µM).
